Data set [1] in a line: Proliferation of exponentially growing Huh-5-2 cells (MTS method). The settings on record: human, CC50, concentration required to inhibit the proliferation of exponentially growing Huh-5-2 cells by 50%; Table 2. As for the experimental part: Cells were seeded at a density of 7000 cells per well in 96 well View Plate™ (Packard) in medium containing the same components as described above, except for G418. Cells were allowed to adhere and proliferate for 24 hr. At that time, culture medium was removed and serial dilutions of the test compounds were added in culture medium lacking G418. Interferon alfa 2a (500 IU) was included as a positive control. Plates were further incubated at 37° C. and 5% CO2 for 72 hours. Replication of the HCV replicon in Huh-5 cells results in luciferase activity in the cells. Luciferase activity is measured by adding 50 μl of 1×Glo-lysis buffer (Promega) for 15 minutes followed by 50 ul of the Steady-Glo Luciferase assay reagent (Promega). Luciferase activity is measured with a luminometer and the signal in each individual well is expressed as a percentage of the untreated cultures. […] Instead the density of the culture is measured by means of the MTS method (Promega).
Background: Formazan colour is commonly taken as a measure of viable cells.

For data set [2], the system named is HCV replicon I389luc-ubi-neo/NS3-3'/5.1. In words: Anti-HCV replicon assay (luciferase activity) in Huh-5-2 cells. In kind it is cell-based, Hepatitis C virus. As to conditions: Hepatitis C virus, Huh-5-2, 72 h, concentration required to inhibit luciferase activity in the replicon system by 50%. In outline:
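Huh-5-2 cells carrying the luciferase HCV replicon, seeded 24 h, then exposed to serial compound dilutions without G418 for 72 h at 37° C, 5% CO2. Replication read as luciferase luminescence, expressed as percentage of untreated cultures; culture density measured in parallel by MTS.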

Molecules are shown by their SMILES. Values after ≈ are worked out from the molar mass of the structure shown.

In turn, `COCCN1C(=O)c2ccccc2C(C(=O)Nc2cccc(OC)c2)C1C1CCCC1` (stereo not shown) [C118, 3-cyclopentyl-2-(2-methoxyethyl)-N-(3-methoxyphenyl)-1-oxo-1,2,3,4-tetrahydroisoquinoline-4-carboxamide] came in with a cytotoxic concentration (CC50) at 72 h in data set [1] of 98.2 µg/mL (≈ 233 µM). In data set [2], this molecule returned a half-maximal inhibitory concentration (IC50) of 8.32 µg/mL (≈ 19.7 µM).

With `COCCN1C(=O)c2ccccc2C(C(=O)Nc2cccc(OC)c2)C1C#Cc1ccccc1` (stereo not shown) [C119, 2-(2-methoxyethyl)-N-(3-methoxyphenyl)-1-oxo-3-(phenylethynyl)-1,2,3,4-tetrahydroisoquinoline-4-carboxamide], the CC50 at 72 h in data set [1] is 94 µg/mL (≈ 207 µM). The same molecule yielded an IC50 in data set [2] of 4.63 µg/mL (≈ 10.2 µM).

In data set [1], `COCCN1C(=O)c2ccccc2C(C(=O)Nc2cccc(OC)c2)C1C=C(C)C` (stereo not shown) [C120, 2-(2-methoxyethyl)-N-(3-methoxyphenyl)-3-(2-methylprop-1-enyl)-1-oxo-1,2,3,4-tetrahydroisoquinoline-4-carboxamide] displayed a CC50 at 72 h of 95.4 µg/mL (≈ 233 µM). The midpoint of inhibition in data set [2], the IC50, lay at 3.28 µg/mL (≈ 8.03 µM).

On to `COCCN1C(=O)c2ccccc2C(C(=O)Nc2cccc(N3CCCC3)c2)C1c1cccs1` (stereo not shown) [C122, 2-(2-methoxyethyl)-1-oxo-N-(3-(pyrrolidin-1-yl)phenyl)-3-(thiophen-2-yl)-1,2,3,4-tetrahydroisoquinoline-4-carboxamide], for which it took 81.3 µg/mL (≈ 171 µM) to reach half-maximal cytotoxicity in data set [1] (CC50 at 72 h). In data set [2], this molecule had a concentration for half-maximal inhibition (IC50) of 0.37 µg/mL (≈ 0.778 µM).

In data set [1], `COCCN1C(=O)c2ccccc2C(C(=O)Nc2ccc3c(ccn3C)c2)C1c1cccs1` (stereo not shown) [C123, 2-(2-methoxyethyl)-N-(1-methyl-1H-indol-5-yl)-1-oxo-3-(thiophen-2-yl)-1,2,3,4-tetrahydroisoquinoline-4-carboxamide] yielded a 50% cytotoxic concentration (CC50) at 72 h of 87.9 µg/mL (≈ 191 µM). The same molecule showed an IC50 in data set [2] of 0.25 µg/mL (≈ 0.544 µM).

On to `CCc1nnc(NC(=O)C2c3ccccc3C(=O)N(CCOC)C2c2cccs2)o1` (stereo not shown) [C125, N-(5-ethyl-1,3,4-oxadiazol-2-yl)-2-(2-methoxyethyl)-1-oxo-3-(thiophen-2-yl)-1,2,3,4-tetrahydroisoquinoline-4-carboxamide], for which the CC50 at 72 h in data set [1] is 53.6 µg/mL (≈ 126 µM). Besides, the IC50 in data set [2] came to 7.3 µg/mL (≈ 17.1 µM).

The molecule `COCCN1C(=O)c2ccccc2C(C(=O)Nc2cc(C)on2)C1c1cccs1` (stereo not shown) [C126, 2-(2-methoxyethyl)-N-(5-methylisoxazol-3-yl)-1-oxo-3-(thiophen-2-yl)-1,2,3,4-tetrahydroisoquinoline-4-carboxamide] gave a CC50 at 72 h in data set [1] of 58.1 µg/mL (≈ 141 µM). The 50% inhibitory concentration (IC50) in data set [2] turned out to be 0.9 µg/mL (≈ 2.19 µM).

In the case of `COCCN1C(=O)c2ccccc2C(C(=O)Nc2cc(C)no2)C1c1cccs1` (stereo not shown) [C127, 2-(2-methoxyethyl)-N-(3-methylisoxazol-5-yl)-1-oxo-3-(thiophen-2-yl)-1,2,3,4-tetrahydroisoquinoline-4-carboxamide], the 50% cytotoxic concentration (CC50) at 72 h in data set [1] is 87.2 µg/mL (≈ 212 µM). The molecule further displayed an IC50 in data set [2] of 10.3 µg/mL (≈ 25 µM).

Regarding `COCCN1C(=O)c2ccccc2C(C(=O)Nc2cc(OC)cc(OC)c2)C1c1cccs1` (stereo not shown) [C130, N-(3,5-dimethoxyphenyl)-2-(2-methoxyethyl)-1-oxo-3-(thiophen-2-yl)-1,2,3,4-tetrahydroisoquinoline-4-carboxamide], in data set [1], the cytotoxic concentration (CC50) at 72 h was determined as 91.8 µg/mL (≈ 197 µM). This molecule showed an IC50 in data set [2] of 0.8 µg/mL (≈ 1.71 µM).

As for `COCCN1C(=O)c2ccccc2C(C(=O)Nc2ccc3[nH]c(C)cc3c2)C1c1cccs1` (stereo not shown) [C131, 2-(2-methoxyethyl)-N-(2-methyl-1H-indol-5-yl)-1-oxo-3-(thiophen-2-yl)-1,2,3,4-tetrahydroisoquinoline-4-carboxamide], the half-maximal cytotoxic concentration (CC50) at 72 h in data set [1] was 69.7 µg/mL (≈ 152 µM). The concentration for half-maximal inhibition (IC50) in data set [2] was 1.12 µg/mL (≈ 2.44 µM).

In data set [1], `COCCN1C(=O)c2ccccc2C(C(=O)Nc2cccc(OC)c2)C1c1ccc(Cl)s1` (stereo not shown) [C135, 3-(5-chlorothiophen-2-yl)-2-(2-methoxyethyl)-N-(3-methoxyphenyl)-1-oxo-1,2,3,4-tetrahydroisoquinoline-4-carboxamide] gave a CC50 at 72 h of 56.7 µg/mL (≈ 120 µM). Also, it took 0.52 µg/mL (≈ 1.1 µM) to reach half-maximal inhibition in data set [2] (IC50).

Take `COCCN1C(=O)c2ccccc2C(C(=O)Nc2ccc(C(=O)NCc3ccccc3)cc2)C1c1cccs1` (stereo not shown) [C137, N-(4-(benzylcarbamoyl)phenyl)-2-(2-methoxyethyl)-1-oxo-3-(thiophen-2-yl)-1,2,3,4-tetrahydroisoquinoline-4-carboxamide]: in data set [1], the CC50 at 72 h stood at 81.1 µg/mL (≈ 150 µM). Moreover, half-maximal inhibition in data set [2] (IC50) was put at 0.032 µg/mL (≈ 0.0593 µM).

For `COCCN1C(=O)c2ccccc2C(C(=O)Nc2ccc(C(=O)N(C)C)cc2)C1c1cccs1` (stereo not shown) [C139, N-(4-(dimethylcarbamoyl)phenyl)-2-(2-methoxyethyl)-1-oxo-3-(thiophen-2-yl)-1,2,3,4-tetrahydroisoquinoline-4-carboxamide], the midpoint of cytotoxicity in data set [1], the CC50 at 72 h, lay at 75.3 µg/mL (≈ 158 µM). Moreover, the half-inhibitory concentration (IC50) in data set [2] is 2.74 µg/mL (≈ 5.74 µM).

In turn, `CNC(=O)c1ccc(NC(=O)C2c3ccccc3C(=O)N(CCOC)C2c2cccs2)cc1` (stereo not shown) [C141, 2-(2-methoxyethyl)-N-(4-(methylcarbamoyl)phenyl)-1-oxo-3-(thiophen-2-yl)-1,2,3,4-tetrahydroisoquinoline-4-carboxamide] returned a cytotoxic concentration (CC50) at 72 h in data set [1] of 73.8 µg/mL (≈ 159 µM). The IC50 in data set [2] was determined as 0.63 µg/mL (≈ 1.36 µM).

In data set [1], `COCCN1C(=O)c2cccc(OC)c2C(C(=O)Nc2cccc(OC)c2)C1c1cccs1` (stereo not shown) [C148, 5-methoxy-2-(2-methoxyethyl)-N-(3-methoxyphenyl)-1-oxo-3-(thiophen-2-yl)-1,2,3,4-tetrahydroisoquinoline-4-carboxamide] displayed a 50% cytotoxic concentration (CC50) at 72 h of 52.1 µg/mL (≈ 112 µM). Moreover, inhibition in data set [2] was half-maximal at 24.6 µg/mL (≈ 52.6 µM) (IC50).

With `COCCN1C(=O)c2c(ccc(OC)c2F)C(C(=O)Nc2ccc(-n3cccc3)cc2)C1c1cccs1` (stereo not shown) [C150, N-(4-(1H-pyrrol-1-yl)phenyl)-8-fluoro-7-methoxy-2-(2-methoxyethyl)-1-oxo-3-(thiophen-2-yl)-1,2,3,4-tetrahydroisoquinoline-4-carboxamide], the CC50 at 72 h in data set [1] is greater than 125 µg/mL. The half-inhibitory concentration (IC50) in data set [2] worked out at 0.08 µg/mL (≈ 0.154 µM).

`COCCN1C(=O)c2ccccc2C(C(=O)N(C)c2cccc(OC)c2)C1c1cccs1` (stereo not shown) [C151, 2-(2-methoxyethyl)-N-(3-methoxyphenyl)-N-methyl-1-oxo-3-(thiophen-2-yl)-1,2,3,4-tetrahydroisoquinoline-4-carboxamide] had a CC50 at 72 h in data set [1] of 52 µg/mL (≈ 115 µM). In data set [2], this molecule had an IC50 of 22.8 µg/mL (≈ 50.7 µM).

As to `COCCN1C(=O)c2ccccc2C(C(=O)Nc2onc(C)c2C#N)C1c1cccs1` (stereo not shown) [C155, N-(4-cyano-3-methylisoxazol-5-yl)-2-(2-methoxyethyl)-1-oxo-3-(thiophen-2-yl)-1,2,3,4-tetrahydroisoquinoline-4-carboxamide], in data set [1], it took 76.4 µg/mL (≈ 175 µM) to reach half-maximal cytotoxicity (CC50 at 72 h). The molecule also displayed an IC50 in data set [2] of 5.65 µg/mL (≈ 12.9 µM).

`COCCN1C(=O)c2ccccc2C(C(=O)Nc2cnccn2)C1c1cccs1` (stereo not shown) [C163, 2-(2-methoxyethyl)-1-oxo-N-(pyrazin-2-yl)-3-(thiophen-2-yl)-1,2,3,4-tetrahydroisoquinoline-4-carboxamide] returned a CC50 at 72 h in data set [1] of 81 µg/mL (≈ 198 µM). The IC50 in data set [2] came out at 5.23 µg/mL (≈ 12.8 µM).

Take `COCCN1C(=O)c2ccccc2C(C(=O)Nc2cccc(CO)c2)C1c1cccs1` (stereo not shown) [C166, N-(3-(hydroxymethyl)phenyl)-2-(2-methoxyethyl)-1-oxo-3-(thiophen-2-yl)-1,2,3,4-tetrahydroisoquinoline-4-carboxamide]: the cytotoxic concentration (CC50) at 72 h in data set [1] was 64.3 µg/mL (≈ 147 µM). This molecule also displayed an IC50 in data set [2] of 0.38 µg/mL (≈ 0.87 µM).

In turn, `COCCN1C(=O)c2ccccc2C(C(=O)Nc2ccc(-n3cncn3)cc2)C1c1cccs1` (stereo not shown) [C167, N-(4-(1H-1,2,4-triazol-1-yl)phenyl)-2-(2-methoxyethyl)-1-oxo-3-(thiophen-2-yl)-1,2,3,4-tetrahydroisoquinoline-4-carboxamide] came in with a CC50 at 72 h in data set [1] of 60 µg/mL (≈ 127 µM). In addition, the IC50 in data set [2] turned out to be 0.12 µg/mL (≈ 0.253 µM).

`COCCN1C(=O)c2ccccc2C(C(=O)Nc2ccc3ncsc3c2)C1c1cccs1` (stereo not shown) [C170, N-(benzo[d]thiazol-6-yl)-2-(2-methoxyethyl)-1-oxo-3-(thiophen-2-yl)-1,2,3,4-tetrahydroisoquinoline-4-carboxamide] came in with a CC50 at 72 h in data set [1] of 37.7 µg/mL (≈ 81.2 µM). In data set [2], this molecule displayed an IC50 of 0.12 µg/mL (≈ 0.259 µM).

`COCCN1C(=O)c2ccccc2C(C(=O)Nc2cccc(-n3cccn3)c2)C1c1cccs1` (stereo not shown) [C172, N-(3-(1H-pyrazol-1-yl)phenyl)-2-(2-methoxyethyl)-1-oxo-3-(thiophen-2-yl)-1,2,3,4-tetrahydroisoquinoline-4-carboxamide] displayed a CC50 at 72 h in data set [1] of 14.5 µg/mL (≈ 30.6 µM). The midpoint of inhibition in data set [2], the IC50, lay at 0.09 µg/mL (≈ 0.19 µM).

Molecule `COCCN1C(=O)c2ccccc2C(C(=O)Nc2ccc(-c3cccnc3)cc2)C1c1cccs1` (stereo not shown) [C173, 2-(2-methoxyethyl)-1-oxo-N-(4-(pyridin-3-yl)phenyl)-3-(thiophen-2-yl)-1,2,3,4-tetrahydroisoquinoline-4-carboxamide] yielded a cytotoxic concentration (CC50) at 72 h in data set [1] of 9.59 µg/mL (≈ 19.8 µM). In data set [2], half-maximal inhibition (IC50) required 0.09 µg/mL (≈ 0.186 µM).

In turn, `COCCN1C(=O)c2ccccc2C(C(=O)Nc2ccc(Cn3cccn3)cc2)C1c1cccs1` (stereo not shown) [C174, N-(4-((1H-pyrazol-1-yl)methyl)phenyl)-2-(2-methoxyethyl)-1-oxo-3-(thiophen-2-yl)-1,2,3,4-tetrahydroisoquinoline-4-carboxamide] displayed a cytotoxic concentration (CC50) at 72 h in data set [1] of 43 µg/mL (≈ 88.3 µM). In data set [2], 0.15 µg/mL (≈ 0.308 µM) corresponded to half-maximal inhibition (IC50).

On to `COCCN1C(=O)c2ccccc2C(C(=O)Nc2nc(C(C)(C)C)cs2)C1c1cccs1` (stereo not shown) [C177, N-(4-tert-butylthiazol-2-yl)-2-(2-methoxyethyl)-1-oxo-3-(thiophen-2-yl)-1,2,3,4-tetrahydroisoquinoline-4-carboxamide], for which, in data set [1], the CC50 at 72 h came out at 3.16 µg/mL (≈ 6.73 µM). Also, in data set [2], the IC50 turned out to be 0.5 µg/mL (≈ 1.06 µM).

A word on the CC50: it is the concentration that lowers cell viability or growth by half. A word on the IC50: it is the concentration that inhibits the measured activity by half.
